Legend:
[1] = xn = mol fraction of the nth substance listed; conditions: 101 kPa, Liquid
[2] = molar heat capacity at constant pressure; xn = mol fraction of the nth substance listed; conditions: 101 kPa, Liquid

C[N+](=O)[O-] [nitromethane] + CCCC[n+]1cccc(C)c1.F[B-](F)(F)F
Conditions | mass density, [1] [kg/m3] | molar heat capacity at constant pressure, [2] [J/K/mol]
293.15 K, x2 = 0 | 1140.2 | 106.6
293.15 K, x2 = 0.0517 | 1153.4 | 120.3
293.15 K, x2 = 0.1038 | 1161.5 | 134.2
293.15 K, x2 = 0.1952 | 1170.3 | 159.9
293.15 K, x2 = 0.3078 | 1176.7 | –
293.15 K, x2 = 0.3563 | 1178.7 | 205.2
293.15 K, x2 = 0.3998 | 1180.1 | 217.4
293.15 K, x2 = 0.5121 | 1183 | 249.2
293.15 K, x2 = 0.5994 | 1184.6 | 273.7
293.15 K, x2 = 0.6856 | 1185.8 | 297.7
293.15 K, x2 = 0.7863 | 1186.9 | 326.4
293.15 K, x2 = 0.8842 | 1187.7 | 353.6
293.15 K, x2 = 0.9034 | 1187.9 | 359.1
293.15 K, x2 = 0.941 | 1188.2 | 369.8
298.15 K, x2 = 0 | 1133.4 | 106.9
298.15 K, x2 = 0.0517 | 1147.4 | 120.5
298.15 K, x2 = 0.1038 | 1156 | 134.7
298.15 K, x2 = 0.1952 | 1165.4 | 160.4
298.15 K, x2 = 0.3078 | 1172.2 | –
298.15 K, x2 = 0.3563 | 1174.3 | 206
298.15 K, x2 = 0.3998 | 1175.9 | 218.3
298.15 K, x2 = 0.5121 | 1179 | 250.2
298.15 K, x2 = 0.5994 | 1180.7 | 274.8
298.15 K, x2 = 0.6856 | 1182.1 | 299
298.15 K, x2 = 0.7863 | 1183.3 | 327.8
298.15 K, x2 = 0.8842 | 1184.2 | 355.3
298.15 K, x2 = 0.9034 | 1184.4 | 360.8
298.15 K, x2 = 0.941 | 1184.8 | 371.6
303.15 K, x2 = 0 | 1126.6 | 107.3
303.15 K, x2 = 0.0517 | 1141.3 | 120.9
303.15 K, x2 = 0.1038 | 1150.5 | 135.2
303.15 K, x2 = 0.1952 | 1160.4 | 161
303.15 K, x2 = 0.3078 | 1167.8 | –
303.15 K, x2 = 0.3563 | 1170 | 206.9
303.15 K, x2 = 0.3998 | 1171.6 | 219.3
303.15 K, x2 = 0.5121 | 1175 | 251.4
303.15 K, x2 = 0.5994 | 1176.9 | 276.2
303.15 K, x2 = 0.6856 | 1178.3 | 300.6
303.15 K, x2 = 0.7863 | 1179.7 | 329.6
303.15 K, x2 = 0.8842 | 1180.7 | 357.3
303.15 K, x2 = 0.9034 | 1180.9 | 362.9
303.15 K, x2 = 0.941 | 1181.3 | 373.7
308.15 K, x2 = 0 | 1119.7 | 107.7
308.15 K, x2 = 0.0517 | 1135.3 | 121.3
308.15 K, x2 = 0.1038 | 1144.9 | 135.7
308.15 K, x2 = 0.1952 | 1155.5 | 161.8
308.15 K, x2 = 0.3078 | 1163.3 | –
308.15 K, x2 = 0.3563 | 1165.7 | 208
308.15 K, x2 = 0.3998 | 1167.4 | 220.5
308.15 K, x2 = 0.5121 | 1171 | 252.8
308.15 K, x2 = 0.5994 | 1173.1 | 277.9
308.15 K, x2 = 0.6856 | 1174.6 | 302.5
308.15 K, x2 = 0.7863 | 1176.1 | 331.7
308.15 K, x2 = 0.8842 | 1177.2 | 359.7
308.15 K, x2 = 0.9034 | 1177.4 | 365.3
308.15 K, x2 = 0.941 | 1177.9 | 376.2
313.15 K, x2 = 0 | 1112.9 | 108.2
313.15 K, x2 = 0.0517 | 1129.2 | 121.9
313.15 K, x2 = 0.1038 | 1139.4 | 136.4
313.15 K, x2 = 0.1952 | 1150.6 | 162.5
313.15 K, x2 = 0.3078 | 1158.8 | –
313.15 K, x2 = 0.3563 | 1161.4 | 209.2
313.15 K, x2 = 0.3998 | 1163.2 | 221.9
313.15 K, x2 = 0.5121 | 1167 | 254.4
313.15 K, x2 = 0.5994 | 1169.2 | 279.8
313.15 K, x2 = 0.6856 | 1170.9 | 304.6
313.15 K, x2 = 0.7863 | 1172.5 | 334.1
313.15 K, x2 = 0.8842 | 1173.7 | 362.4
313.15 K, x2 = 0.9034 | 1174 | 368.1
313.15 K, x2 = 0.941 | 1174.4 | 379
318.15 K, x2 = 0 | 1106 | 108.6
318.15 K, x2 = 0.0517 | 1123.1 | 122.4
318.15 K, x2 = 0.1038 | 1133.9 | 137.1
318.15 K, x2 = 0.1952 | 1145.6 | 163.5
318.15 K, x2 = 0.3078 | 1154.4 | –
318.15 K, x2 = 0.3563 | 1157.1 | 210.6
318.15 K, x2 = 0.3998 | 1159.1 | 223.5
318.15 K, x2 = 0.5121 | 1163.1 | 256.3
318.15 K, x2 = 0.5994 | 1165.4 | 281.9
318.15 K, x2 = 0.6856 | 1167.2 | 307
318.15 K, x2 = 0.7863 | 1169 | 336.8
318.15 K, x2 = 0.8842 | 1170.3 | 365.5
318.15 K, x2 = 0.9034 | 1170.5 | 371.1
318.15 K, x2 = 0.941 | 1171 | 382.3
